# Data from ChEMBL document CHEMBL4411296, “Design and development of Isatin-triazole hydrazones as potential inhibitors of microtubule affinity-regulating kinase 4 for the therapeutic management of cell proliferation and metastasis” (Eur J Med Chem, 2019).
# Key:
# Type in all cases: functional
# 786-0 = assay: Growth inhibition of human 786-0 cells assessed as cell growth at 10 uM after 48 hrs by sulforhodamine B assay relative to control; details: 786-0, 48 h, read-out: Activity
# HCC 2998 = assay: Growth inhibition of human HCC2998 cells assessed as cell growth at 10 uM after 48 hrs by sulforhodamine B assay relative to control; details: HCC 2998, 48 h, read-out: Activity
# A498 = assay: Growth inhibition of human A498 cells assessed as cell growth at 10 uM after 48 hrs by sulforhodamine B assay relative to control; details: A498, 48 h, read-out: Activity
# HT-29 = assay: Growth inhibition of human HT-29 cells assessed as cell growth at 10 uM after 48 hrs by sulforhodamine B assay relative to control; details: HT-29, 48 h, read-out: Activity
# CAKI-1 = assay: Growth inhibition of human Caki1 cells assessed as cell growth at 10 uM after 48 hrs by sulforhodamine B assay relative to control; details: CAKI-1, 48 h, read-out: Activity
# OVCAR-5 = assay: Growth inhibition of human OVCAR5 cells assessed as cell growth at 10 uM after 48 hrs by sulforhodamine B assay relative to control; details: OVCAR-5, 48 h, read-out: Activity
# RXF 393 = assay: Growth inhibition of human RXF393 cells assessed as cell growth at 10 uM after 48 hrs by sulforhodamine B assay relative to control; details: RXF 393, 48 h, read-out: Activity
# NCI-H522 = assay: Growth inhibition of human NCI-H522 cells assessed as cell growth at 10 uM after 48 hrs by sulforhodamine B assay relative to control; details: NCI-H522, 48 h, read-out: Activity
# SNB-75 = assay: Growth inhibition of human SNB75 cells assessed as cell growth at 10 uM after 48 hrs by sulforhodamine B assay relative to control; details: SNB-75, 48 h, read-out: Activity
# EKVX = assay: Growth inhibition of human EKVX cells assessed as cell growth at 10 uM after 48 hrs by sulforhodamine B assay relative to control; details: read-out: Activity
# NCI-H460 = assay: Growth inhibition of human NCI-H460 cells assessed as cell growth at 10 uM after 48 hrs by sulforhodamine B assay relative to control; details: NCI-H460, 48 h, read-out: Activity
# HL-60(TB) = assay: Growth inhibition of human HL-60(TB) cells assessed as cell growth at 10 uM after 48 hrs by sulforhodamine B assay relative to control; details: HL-60, 48 h, read-out: Activity
# SF-268 = assay: Growth inhibition of human SF268 cells assessed as cell growth at 10 uM after 48 hrs by sulforhodamine B assay relative to control; details: SF-268, 48 h, read-out: Activity
# HOP-62 = assay: Growth inhibition of human HOP62 cells assessed as cell growth at 10 uM after 48 hrs by sulforhodamine B assay relative to control; details: HOP-62, 48 h, read-out: Activity
# ACHN = assay: Growth inhibition of human ACHN cells assessed as cell growth at 10 uM after 48 hrs by sulforhodamine B assay relative to control; details: read-out: Activity
# Malme-3M = assay: Growth inhibition of human MALME-3M cells assessed as cell growth at 10 uM after 48 hrs by sulforhodamine B assay relative to control; details: read-out: Activity
# NCI-H226 = assay: Growth inhibition of human NCI-H226 cells assessed as cell growth at 10 uM after 48 hrs by sulforhodamine B assay relative to control; details: NCI-H226, 48 h, read-out: Activity
# MCF7 = assay: Growth inhibition of human MCF7 cells assessed as cell growth at 10 uM after 48 hrs by sulforhodamine B assay relative to control; details: MCF7, 48 h, read-out: Activity
# UACC-62 = assay: Growth inhibition of human UACC62 cells assessed as cell growth at 10 uM after 48 hrs by sulforhodamine B assay relative to control; details: UACC-62, 48 h, read-out: Activity
# NCI-H322M = assay: Growth inhibition of human NCI-H322M cells assessed as cell growth at 10 uM after 48 hrs by sulforhodamine B assay relative to control; details: read-out: Activity
# BT-549 = assay: Growth inhibition of human BT549 cells assessed as cell growth at 10 uM after 48 hrs by sulforhodamine B assay relative to control; details: BT-549, 48 h, read-out: Activity
# A549 = assay: Growth inhibition of human A549/ATCC cells assessed as cell growth at 10 uM after 48 hrs by sulforhodamine B assay relative to control; details: A549, 48 h, read-out: Activity
# CCRF-CEM = assay: Growth inhibition of human CCRF-CEM cells assessed as cell growth at 10 uM after 48 hrs by sulforhodamine B assay relative to control; details: read-out: Activity
# OVCAR-8 = assay: Growth inhibition of human OVCAR8 cells assessed as cell growth at 10 uM after 48 hrs by sulforhodamine B assay relative to control; details: OVCAR-8, 48 h, read-out: Activity
# NCI/ADR-RES = assay: Growth inhibition of human NCI/ADR-RES cells assessed as cell growth at 10 uM after 48 hrs by sulforhodamine B assay relative to control; details: read-out: Activity
# SNB-19 = assay: Growth inhibition of human SNB19 cells assessed as cell growth at 10 uM after 48 hrs by sulforhodamine B assay relative to control; details: SNB-19, 48 h, read-out: Activity
# PC-3 = assay: Growth inhibition of human PC3 cells assessed as cell growth at 10 uM after 48 hrs by sulforhodamine B assay relative to control; details: PC-3, 48 h, read-out: Activity
# NCI-H23 = assay: Growth inhibition of human NCI-H23 cells assessed as cell growth at 10 uM after 48 hrs by sulforhodamine B assay relative to control; details: NCI-H23, 48 h, read-out: Activity
# LOX IMVI = assay: Growth inhibition of human LOXIMVI cells assessed as cell growth at 10 uM after 48 hrs by sulforhodamine B assay relative to control; details: read-out: Activity
# RPMI-8226 = assay: Growth inhibition of human RPMI8226 cells assessed as cell growth at 10 uM after 48 hrs by sulforhodamine B assay relative to control; details: RPMI-8226, 48 h, read-out: Activity
# MDA-MB-231 = assay: Growth inhibition of human MDA-MB-231 cells assessed as cell growth at 10 uM after 48 hrs by sulforhodamine B assay relative to control; details: MDA-MB-231, 48 h, read-out: Activity
# M14 = assay: Growth inhibition of human M14 cells assessed as cell growth at 10 uM after 48 hrs by sulforhodamine B assay relative to control; details: M14, 48 h, read-out: Activity
# SK-MEL-2 = assay: Growth inhibition of human SK-MEL-2 cells assessed as cell growth at 10 uM after 48 hrs by sulforhodamine B assay relative to control; details: SK-MEL-2, 48 h, read-out: Activity
# SF-295 = assay: Growth inhibition of human SF295 cells assessed as cell growth at 10 uM after 48 hrs by sulforhodamine B assay relative to control; details: SF-295, 48 h, read-out: Activity
smiles,measurement,setting,value
COc1ccc(Cn2cc(C(=O)N/N=C3/C(=O)Nc4ccc(F)cc43)nn2)cc1,growth at 10 µM,786-0,97.6%
same,growth at 10 µM,HCC 2998,99.3%
same,growth at 10 µM,A498,83.4%
same,growth at 10 µM,HT-29,91.8%
same,growth at 10 µM,CAKI-1,97.4%
same,growth at 10 µM,OVCAR-5,94.7%
same,growth at 10 µM,RXF 393,110%
same,growth at 10 µM,NCI-H522,86.1%
same,growth at 10 µM,SNB-75,104%
same,growth at 10 µM,EKVX,106%
same,growth at 10 µM,NCI-H460,106%
same,growth at 10 µM,HL-60(TB),101%
same,growth at 10 µM,SF-268,103%
same,growth at 10 µM,HOP-62,102%
same,growth at 10 µM,ACHN,110%
same,growth at 10 µM,Malme-3M,104%
same,growth at 10 µM,NCI-H226,98.5%
same,growth at 10 µM,MCF7,89.5%
same,growth at 10 µM,UACC-62,88.6%
same,growth at 10 µM,NCI-H322M,102%
same,growth at 10 µM,BT-549,116%
same,growth at 10 µM,A549,94.2%
same,growth at 10 µM,CCRF-CEM,95%
same,growth at 10 µM,OVCAR-8,98.7%
same,growth at 10 µM,NCI/ADR-RES,96.7%
same,growth at 10 µM,SNB-19,96.8%
same,growth at 10 µM,PC-3,98.4%
same,growth at 10 µM,NCI-H23,99.5%
same,growth at 10 µM,LOX IMVI,102%
same,growth at 10 µM,RPMI-8226,99.1%
same,growth at 10 µM,MDA-MB-231,106%
same,growth at 10 µM,M14,111%
same,growth at 10 µM,SK-MEL-2,109%
same,growth at 10 µM,SF-295,95.4%
